Patent publication US20130203790A1, “SULFUR-CONTAINING COMPOUNDS AS ANTI-PROLIFERATIVE AGENTS” (221076 ONTARIO INC., priority 2011, published 2013)

What was measured:
[1] = tested on: platelets in whole blood (ADP, collagen and TRAP agonists); assay: Platelet inhibition assay in whole blood (impedance platelet aggregometry, Multiplate System); format: cell-based, human; conditions: for dose dependence of the response in whole blood / reduction in response to agonists in whole blood (anti-platelet effect): all agonists; for dose dependence of the response in whole blood: 10-100 μM; for reduction in response to agonists in whole blood (anti-platelet effect): compound 10-100 μM
Method: (§1) Platelet function studies were performed simultaneously in both whole blood (using whole blood impedance platelet aggregometry with a Multiplate System) and platelet rich plasma (light transmission aggregometry with a Chrono-Log System). Blood was collected from healthy individuals into vacutainers containing 3.2% (w/v) citrate and was used within 3 hours of collection. Platelet rich plasma (“PRP”) was prepared by centrifugation at 170 g for 15 minutes, and the platelet count measured and adjusted to 250×109/L for use in the light transmission aggregometry studies.
(§2) Each compound was tested at final concentrations of 10, 25, 50 and 100 μM. For each test, the compound was diluted 1/100 into the PRP or whole blood to obtain the final concentrations listed. The PRP or whole blood sample was allowed to stir in the aggregometer for 3 minutes prior to agonist addition. One compound was tested each day.
(§3) As a positive control to verify the sensitivity to inhibition of thrombin receptor agonist peptide (TRAP)-mediated aggregation, TRAP-induced aggregations were also done in the presence of eptifibatide, a glycoprotein IIb/IIIa inhibitor (final concentration of 77 μg/mL in PRP and 65 μg/mL in whole blood).
(§4) Materials used included: • The four channel light transmission aggregometer instrument used for the platelet rich plasma studies was from Chrono-Log Corporation. • The ADP and collagen agonists used for platelet rich plasma studies were from Chrono-Log Corporation. • The four channel Multiplate whole blood impedance platelet aggregometer (IPA) was from DiaPharma Group. • The ADP and collagen agonists used for the whole blood studies were provided by DiaPharma Group. The TRAP agonist used in both the whole blood and PRP studies was also obtained from DiaPharma Group.

[2] = tested on: platelets in platelet rich plasma (ADP, collagen and TRAP agonists); assay: Platelet inhibition assay in platelet rich plasma (light transmission aggregometry, Chrono-Log System); format: cell-based, human; conditions: for inhibitory activity observed in PRP: any agonist tested (ADP, collagen, TRAP), compound 10, 25, 50 and 100 μM
Method: as §1, §2, §3, §4

[3] = target: T1, t-PA (degradation of fibrin by tissue plasminogen activator) (Homo sapiens, UniProt P00750); assay: Fibrinolysis assay, microtiter plate turbidity (clot lysis time); format: biochemical; conditions: 500 nM Glu-plasminogen
T1 construct: purchased Genentech
Method: (§5) Coagulation and fibrinolysis were studied simultaneously in a 96-well microtiter plate-based assay system. Varying concentrations of drug in 50 μl buffer or an equivalent volume of saline were added to the wells. To this was added 100 μl of 6 μM fibrinogen, 1 μM Glu-plasminogen and 4 mM CaCl2. Reactions were initiated by addition of 50 μl of buffer containing 2 nM t-PA and 20 nM thrombin. Final concentrations of reagents in the wells were 3 μM fibrinogen, 500 nM Glu-plasminogen, 2 mM CaCl2, 0.05 nM t-PA, 5 nM thrombin and compounds of Formulas (II), (Ill), (IV) or (V) (0-400 μM). As positive controls, hirudin or D-Phe-Pro-Arg chloromethylketone (PPACK) was used in place of the subject compounds. Plates were incubated at 23° C. for 1 h with constant shaking and turbidity was monitored continuously at 405 nm. Clot times and lysis times were determined using instrument soft wave as the times to half maximal increase and decrease in turbidity, respectively. Data are expressed as the mean±SEM of three experiments, each done in triplicate.

[4] = target: T2, thrombin (thrombin-mediated conversion of fibrinogen to fibrin) (Homo sapiens, UniProt P00734); assay: Coagulation assay, microtiter plate turbidity (clot formation, thrombin clot time); format: biochemical
T2 construct: purchased Enzyme Research Laboratories
Method: as §5, with “[…] […]” for “Final concentrations of reagents in the wells were 3 μM fibrinogen, 500 nM Glu-plasminogen, 2 mM CaCl2, 0.05 nM t-PA, 5 nM thrombin and compounds of Formulas (II), (Ill), (IV) or (V) (0-400 μM). As positive controls, hirudin or D-Phe-Pro-Arg chloromethylketone (PPACK) was used in place of the subject compounds.”

[5] = tested at 0-100 nM, 5 nM thrombin

T1 sequence (P00750 36-562): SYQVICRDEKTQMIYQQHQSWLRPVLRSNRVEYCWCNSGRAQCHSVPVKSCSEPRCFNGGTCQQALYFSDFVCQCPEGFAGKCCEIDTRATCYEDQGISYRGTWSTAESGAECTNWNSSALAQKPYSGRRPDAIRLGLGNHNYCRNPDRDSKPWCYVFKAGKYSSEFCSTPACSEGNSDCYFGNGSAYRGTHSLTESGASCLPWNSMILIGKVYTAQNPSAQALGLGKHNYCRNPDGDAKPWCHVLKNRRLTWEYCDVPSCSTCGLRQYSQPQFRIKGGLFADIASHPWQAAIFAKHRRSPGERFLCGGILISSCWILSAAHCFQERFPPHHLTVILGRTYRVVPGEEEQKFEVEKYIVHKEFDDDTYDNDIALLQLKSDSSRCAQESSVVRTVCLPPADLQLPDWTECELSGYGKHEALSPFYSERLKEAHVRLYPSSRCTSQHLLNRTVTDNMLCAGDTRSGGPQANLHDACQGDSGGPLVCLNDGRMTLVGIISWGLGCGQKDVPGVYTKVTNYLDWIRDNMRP

2-methyldisulfanyl-pyrimidine [2-methyldisulfanyl-pyrimidine (V)]
reduction of platelet response to all agonists in whole blood ([1]; 100 μM): approximately 50%
dose dependence of the response in whole blood [1]: positive dose dependent inhibition
inhibitory activity observed in PRP at highest concentration ([2]; all agonists, highest concentration tested (100 μM)): surprising inhibitory activity

CSSc1ccccn1 [2-methyldisulfanyl-pyridine (III), 2-methyldisulfanyl-pyridine]
dose dependence of the response in whole blood [1]: does not appear to be dose dependent
reduction in response to all agonists in whole blood ([1]; not dose dependent (10-100 μM)): ~25%
inhibitory activity observed in PRP [2]: no inhibitory activity

CSSc1ccc(N)cc1 [4-methyldisulfanyl-phenylamine (IV), 4-methyldisulfanyl-phenylamine]
dose dependence of the response in whole blood [1]: does not appear to be dose dependent
reduction in response to agonists in whole blood (anti-platelet effect) [1]: Some reduction in response to all agonists
inhibitory activity observed in PRP [2]: no inhibitory activity

CSSc1ccncc1 [4-methyldisulfanyl-pyridine (II), 4-methyldisulfanyl-pyridine]
dose dependence of the response in whole blood [1]: does not appear to be dose dependent
reduction in response to agonists in whole blood (anti-platelet effect) [1]: reduction in response to all agonists
inhibitory activity observed in PRP [2]: no inhibitory activity

D-Phe-Pro-Arg chloromethylketone [PPACK]
effect on clot lysis times [3]: lysis times were shortened

hirudin
effect on clot lysis times [3]: lysis times were shortened
effect on clot formation and lysis profiles ([4]; compounds of the invention up to 400 μM, hirudin and PPACK as positive controls, 23° C., turbidity at 405 nm): inhibited clot formation and lysis
concentration causing complete inhibition of clotting [4, 5]: 25 nM
lowest concentration with measurable effect on clotting [4, 5]: 6.25 nM
